Patent US10662223B2, “Composition for organ, tissue, or cell transplantation, kit, and transplantation method” (GemVax & KAEL Co., Ltd., priority 2014, dated 2020)
Entries after “also recorded” stand apart in the source; their conditions may differ.

Key:
[1] = system: renal IR injury mouse model; assay: Renal IR injury mouse model: blood urea nitrogen (BUN) and creatine; type: in vivo, C57BL/6 mouse; conditions: 24 hours after IR; 1000 nmol/kg 30 minutes before and 12 hours after IR; compared with PBS control group
Method: (§1) A renal JR injury mouse model was obtained by inducing IR by bilateral clamping renal pedicles for 30 minutes and restoring blood flow after 30 minutes by removing the clamps. Experimental groups were divided into three groups, which are an administered group (PEP 1), a control group (PBS: without PEP 1 administration), and a Sham group (no bilateral clamping). PEP 1 was subcutaneously injected at a concentration of 1000 nmol/kg 30 minutes before and 12 hours after the IR induction.
(§2) A C57BL/6 mouse (8-week-old; Charles River Laboratories, Wilmington, Mass.) was used to induce renal IR injury. The renal pedicles were clamped with vascular forceps to block blood flow, and ischemia was induced for […] in the renal IR injury model, followed by reperfusion.
(§3) The peptide PEP 1 was diluted with PBS to a concentration of 1000 nmol/kg, and then intraperitoneally injected twice, 30 minutes before and 12 hours after the IR.
Blood was taken 24 hours after the JR and the levels of blood urea nitrogen (BUN) and creatine as renal toxicity markers were measured, renal tissue was taken and prepared into paraffin blocks for immunohistochemical and histological studies, and then proteins were extracted to measure cytokine levels. The creatine concentration and BUN were measured using an autoanalyzer (Technicon RA-1000; Bayer, Tarrytown, N.Y.).

renal tissue = assay: Renal IR injury mouse model: TUNEL staining, renal apoptosis; type: in vivo, C57BL/6 mouse; conditions: 24 hours after IR; 1000 nmol/kg 30 minutes before and 12 hours after IR; compared with PBS control group
Method: (§4) A renal JR injury mouse model was obtained by inducing IR by bilateral clamping renal pedicles for 30 minutes and restoring blood flow after 30 minutes by removing the clamps. Experimental groups were divided into three groups, which are an administered group (PEP 1), a control group (PBS: without PEP 1 administration), and a Sham group (no bilateral clamping). PEP 1 was subcutaneously injected at a concentration of 1000 nmol/kg 30 minutes before and 12 hours after the IR induction. A C57BL/6 mouse (8-week-old; Charles River Laboratories, Wilmington, Mass.) was used to induce renal IR injury. The renal pedicles were clamped with vascular forceps to block blood flow, and ischemia was induced for […] in the renal IR injury model, followed by reperfusion. The peptide PEP 1 was diluted with PBS to a concentration of 1000 nmol/kg, and then intraperitoneally injected twice, 30 minutes before and 12 hours after the IR. […] Renal apoptosis was evaluated by staining renal tissue with TUNEL stain 24 hours after the IR. Renal paraffin sections were stained with TUNEL using a TUNEL staining kit (Roche Applied Science, Indianapolis, Ind., USA).

[2] = system: macrophages and neutrophils in renal tissue; assay: Renal IR injury mouse model: innate immune cell infiltration by immunohistochemistry (F4/80, Gr-1); type: in vivo, C57BL/6 mouse; conditions: 24 hours after IR; 1000 nmol/kg 30 minutes before and 12 hours after IR; compared with PBS control group
Method: as §4, with “Infiltration of innate immune cells” for “Renal apoptosis”, “staining the” for “staining”, “a macrophage maker (F4/80) and a neutrophil maker (Gr-1) through immunohistochemistry” for “TUNEL stain”, “Specifically, infiltrated macrophages and neutrophils” for “Renal paraffin sections”, “with” for “with TUNEL using”, “macrophage-specific antibody (F4/80, abcam., Cambridge, Mass.) by an immunochemical method performed on paraffin-containing sections.” for “TUNEL staining kit (Roche Applied Science, Indianapolis, Ind., USA).”

IL-6 = assay: Renal IR injury mouse model: IL-6 level in renal tissue; type: in vivo, C57BL/6 mouse; conditions: 24 hours after IR; 1000 nmol/kg 30 minutes before and 12 hours after IR; compared with PBS control group
Method: as §1, §2, §3
(§5) Protein was extracted from renal tissue 24 hours after the IR, and IL-6, MCP-1 and TNF-α levels were measured by a cytometric bead array. Mouse IL-6, MCP-1, TNF-α, and an ELISA kit were purchased from R&D Systems, and the experiment was conducted according to the manufacturer's protocol.

MCP-1 = assay: Renal IR injury mouse model: MCP-1 level in renal tissue; type: in vivo, C57BL/6 mouse; conditions: 24 hours after IR; 1000 nmol/kg 30 minutes before and 12 hours after IR; compared with PBS control group
Method: as §1, §2, §3, §5

TNF-α = assay: Renal IR injury mouse model: TNF-α level in renal tissue; type: in vivo, C57BL/6 mouse; conditions: 24 hours after IR; 1000 nmol/kg 30 minutes before and 12 hours after IR; compared with PBS control group
Method: as §1, §2, §3, §5

abdominal skin flap = assay: Flap IR injury rat model: flap survivability; type: in vivo, Sprague-Dawley Rat; conditions: 7 days after IR induction; 10 mg/500 μl intramuscularly 30 minutes before and 1, 2, 3, 4, 5, and 7 days after IR; 7 hours ischemia
Method: Transplantation of a flap of the rectus abdominis was carried out as follows. An IR injury rat model was obtained by detaching a flap with a size of 5 cm×5 cm from abdominal skin of a white rat (Sprague-Dawley Rat, 180 to 230 g), adding PEP1 or saline to the rat, inducing ischemia through clamping, and restoring blood flow after 7 hours by removing the clamps (refer to FIG. 11).
Experimental groups were divided into three groups, which are an administered group (PEP 1), a control group (PBS without PEP 1), and a sham group (group in which no IR injury induced). PEP 1 (10 mg/500 μl) or saline (500 Id) was intramuscularly injected 30 minutes before and 1, 2, 3, 4, 5, and 7 days after the IR induction.
Flap survivability was measured 7 days after the IR induction. The flap survivability was measured through digital image analysis using imageJ program.

transplanted lung [3] = assay: Rat lung transplantation: H&E staining of alveolar tissue; type: in vivo, Sprague-Dawley rat
Method: (§6) The experiment was performed using two rats with the same gene, and lung transplantation was carried out by detaching the left lung from a donor rat and placing the donor's lung in the left thoracic cavity from which an original left lung was removed of the recipient rat. To basically prevent rejection, the rats had the same gene. Both the donor rat and recipient rat had weights of 300 to 350 g, and were the Sprague-Dawley species. Following the extraction of a lung from the donor rat, the lung was transplanted to the recipient rat through surgical procedures.
(§7) During perfusion, mechanical ventilation was continuously performed to allow uniform lung perfusion.
(§8) (4) Following the perfusion, trachea was ligated while the lung expanded under the endotracheal intubation, a heart-lung block was extracted, and then peripheral structures such as esophagus were removed on a cold petri-dish. The heart-lung block was weighed, and subjected to cold storage in a perfusion solution, which was the same as the lung perfusion solution. Ischemic duration was set three hours.
(§9) For the experiment, the lung transplant rats were divided into four groups. […]

transplanted lung [4] = assay: Rat lung transplantation: wet/dry weight ratio (reperfusion edema); type: in vivo, Sprague-Dawley rat; conditions: PERFADEX 50 mL + PEP1 5 mg; lower lobe of transplanted lung
Method: as §6, §7, §8, §9

transplanted lung [5] = assay: Rat lung transplantation: analysis of bronchoalveolar lavage fluid (BAL); type: in vivo, Sprague-Dawley rat; conditions: PERFADEX 50 mL + PEP1 5 mg
Method: as §6, §7, §8, §9

[6] = PERFADEX 50 mL + PEP1 5 mg as lung preservation solution

EARPALLTSRLRFIPK (listed as Homo sapiens) [PEP 1, 16 aa peptide derived from Homo sapiens telomerase, position [611-626]]
blood urea nitrogen (BUN) level [1]: significantly decreased | creatine level [1]: significantly decreased | TUNEL-positive cells (renal apoptosis) (renal tissue): remarkably decreased | infiltration of macrophages into renal tissue (F4/80) [2]: remarkably decreased; also recorded: inhibited | infiltration of neutrophils into renal tissue (Gr-1) [2]: remarkably decreased; also recorded: inhibited | IL-6 level in renal tissue (IL-6): significantly decreased; also recorded: significantly inhibited | MCP-1 level in renal tissue (MCP-1): significantly decreased; also recorded: significantly inhibited | TNF-α level in renal tissue (TNF-α): no significant difference | flap survivability (abdominal skin flap): 58.88%±11.44% | preventing hemorrhage and maintaining the alveolar wall, 5 mg PEP1 rather than 50 mg PEP1 (transplanted lung [3]; PEP1 added to PERFADEX 50 mL, 5 mg compared with 50 mg): more effective | alveolar wall of transplanted lung (H&E) (transplanted lung [3]; [6]): did not get harder | hemorrhage in transplanted lung (H&E) (transplanted lung [3]; [6]): rarely occurred | reperfusion edema (wet/dry weight ratio) compared with normal saline administered group (transplanted lung [4]): significantly (p<0.05) decreased | reperfusion edema level among the four groups (transplanted lung [4]): lowest level | expression of inflammatory cells in BAL among the four groups (transplanted lung [5]): lowest expression
